Results as given in patent publication US8981111B2 (priority 2008, dated 2015).

Experiment: log P (HPLC/MS data of the preparation examples)
Settings: for log p: linear gradient 10% to 95% acetonitrile
[1] = method [b]: LC-MS at pH 2.7, 0.1% formic acid in water / acetonitrile
[2] = LC-MS, method [b]: pH 2.7 with 0.1% formic acid in water and acetonitrile
[3] = LC-MS, method [c]: pH 7.8 with 0.001 molar ammonium hydrogen carbonate solution in water
[4] = HPLC (LC-MS) method [b]: pH 2.7, 0.1% formic acid in water and acetonitrile, EEC directive 79/831 Annex V.A8

Row | Compound | log p [1] | log p [2] | further results
1 | CCCCCC(=O)Nc1cccc(CON=C(c2ccccc2)c2nnc(C(F)(F)F)n2C)n1 [Example 196] | 3.94^[b] | – | –
2 | Cn1c(C(=NOCc2nccc(NC(=O)C(C)(C)C)n2)c2ccccc2)cnc1C(=O)C(C)(C)C [Example 102] | – | 4.84^[b] | –
3 | CC(C)(C)C(=O)Nc1ccnc(CON=C(c2ccsc2)c2snc(Cl)c2Cl)n1 [Example 384] | – | 4.67^[b] | –
4 | Cn1ncnc1C(=NOCc1nccc(N)n1)c1cccs1 [Example 397] | – | 0.47^[b] | –
5 | Cn1ccnc1C(=NOCc1cccc(N)n1)c1cccs1 [Example 387] | – | – | log p [3]: 1.74^[c]
6 | CCCCCC(=O)Nc1cccc(CON=C(c2ccsc2)c2cncn2C)n1 (single isomer, unassigned) [Example 426] | – | – | log p [4]: 1.99^[b]
7 | CCC(=O)Nc1ccnc(CON=C(c2ccccc2)c2nccn2C)n1 [Example 63] | – | 1.38^[b] | –
8 | Cn1ccnc1C(=NOCc1nccc(N)n1)c1cccs1 [Example 386] | – | – | log p [3]: 1.13^[c]
9 | CCCCC(=O)Nc1cccc(CON=C(c2ccccc2)c2nc(C)cnc2C)n1 [Example 379] | – | 3.65^[b] | –
10 | Cn1ncnc1C(=NOCc1csc(NC(=O)C(C)(C)C)n1)c1ncc(C(F)(F)F)cc1Cl [Example 481] | – | – | log p [4]: 3.27^[b]
11 | CCCCCC(=O)Nc1cccc(CON=C(c2cccs2)c2ncnn2C)n1 [Example 393] | – | 3.23^[b] | –
12 | CCCCCC(=O)Nc1nc(CON=C(c2ccccc2)c2cncn2C)cs1 [Example 116] | – | 2.08^[b] | –
13 | CCCCCOC(=O)Nc1cccc(CON=C(c2ccccc2)c2ocnc2C)n1 (single isomer, unassigned) [Example 318] | – | 4.34^[b] | –
14 | Cc1ccccc1C(=NOCc1cccc(NC(=O)C2CC2)n1)c1ncnn1C [Example 23] | – | 2.48^[b] | –
15 | CCCCCCCCCC(=O)Nc1nc(CON=C(c2cccs2)c2cncn2C)cs1 [Example 454] | – | – | log p [4]: 2.86^[b]
16 | CCCCCC(=O)Nc1nc(CON=C(c2cc(C(F)(F)F)ccn2)c2ncccc2C)cs1 [Example 490] | – | – | log p [4]: 3.76^[b]
17 | CCCCS(=O)(=O)Nc1cccc(CON=C(c2ccccc2)c2ncnn2C)n1 [Example 72] | – | 4.21^[b] | –
18 | CCCC(C)C(=O)Nc1cccc(CON=C(c2cccc(F)c2)c2nccn2C)n1 (centres unmarked) [Example 289] | – | 2.77^[b] | –
19 | CCCCCC(=O)Nc1cccc(CON=C(c2ccccc2)c2cnnn2C)n1 [Example 65] | – | 3.52^[b] | –
20 | Cc1cccnc1C(=NOCc1csc(N)n1)c1cc(C(F)(F)F)ccn1 [Example 486] | – | – | log p [4]: 1.57^[b]
21 | Cn1cncc1C(=NOCc1csc(NC(=O)C(C)(C)C)n1)c1cccs1 [Example 449] | – | – | log p [4]: 1.67^[b]
22 | CCCCCCCCCC(=O)Nc1cccc(CON=C(c2cccs2)c2cncn2C)n1 [Example 448] | – | – | log p [4]: 2.98^[b]
23 | CCCCCC(=O)Nc1ccnc(CON=C(c2cccs2)c2nccn2C)n1 [Example 388] | – | 1.93^[b] | –
24 | Cn1cncc1C(=NOCc1nccc(N)n1)c1ccccc1 [Example 95] | – | 0.01^[b] | –
25 | CCCCCOC(=O)Nc1cccc(CON=C(c2ccsc2)c2cncn2C)n1 [Example 425] | – | – | log p [4]: 2.82^[b]
26 | COc1ccc(CC(=O)Nc2cccc(CON=C(c3ccccc3)c3nccn3C)n2)cc1 [Example 266] | 2.33^[b] | – | –

Row | Compound | log p [1] | log p [2] | further results
27 | COc1ccc(CCC(=O)Nc2cccc(CON=C(c3ccccc3)c3ncnn3C)n2)cc1 [Example 297] | – | 3.25^[b] | –
28 | CCCCCOC(=O)Nc1nc(CON=C(c2cccs2)c2ncnn2C)cs1 [Example 400] | – | 3.53^[b] | –
29 | Cn1nncc1C(=NOCc1nccc(NC(=O)C(C)(C)C)n1)c1ccccc1 [Example 77] | – | 2.77^[b] | –
30 | CC(C(=O)Nc1cccc(CON=C(c2cccc(F)c2)c2nccn2C)n1)c1ccccc1 (centres unmarked) [Example 278] | 2.92^[b] | – | –
31 | Cn1cnnc1C(=NOCc1cccc(C#CCC2CCCC2)n1)c1ccccc1 [Example 230] | 3.76^[b] | – | –
32 | COC(C(=O)Nc1cccc(CON=C(c2ccccc2)c2nccn2C)n1)c1ccccc1 (centres unmarked) [Example 337] | – | 2.15^[b] | –
33 | CC(C)C(=O)Nc1ccnc(CON=C(c2ccccc2)c2cncn2C)n1 [Example 124] | – | 1.49^[b] | –
34 | CCCc1ccc(C(=O)Nc2cccc(CON=C(c3ccccc3)c3ncnn3C)n2)cc1 [Example 261] | 4.24^[b] | – | –
35 | CCCCCC(=O)Nc1cccc(CON=C(c2ccccc2)c2csc(C)n2)n1 (single isomer, unassigned) [Example 189] | 4.26^[b] | – | –
36 | Cc1nnsc1C(=NOCc1cccc(N2C(=O)c3ccccc3C2=O)n1)c1ccccc1 [Example 214] | 3.69^[b] | – | –
37 | CCCCCCC(=O)Nc1ccnc(CON=C(c2ccccc2)c2cncn2C)n1 [Example 130] | – | 2.2^[b] | –
38 | CCCCCOC(=O)Nc1cccc(CON=C(c2ccccc2)c2nc(C(F)(F)F)nn2C)n1 [Example 179] | 5.2^[b] | – | –
39 | CCCCCC(=O)Nc1ccnc(CON=C(c2ccccc2)c2cnnn2C)n1 [Example 71] | – | 3.23^[b] | –
40 | CCCOC(=O)Nc1cccc(CON=C(c2ccccc2)c2ncnn2C)n1 [Example 89] | – | 3.15^[b] | –
41 | CCCCCOC(=O)Nc1nc(CON=C(c2ccccc2)c2ocnc2C)cs1 (single isomer, unassigned) [Example 322] | – | 3.87^[b] | –
42 | Cn1nncc1C(=NOCc1cccc(NC(=O)Cc2ccccc2)n1)c1ccccc1 [Example 68] | – | 3.19^[b] | –
43 | Cn1cncc1C(=O)c1ccccc1 [(1-methyl-1H-imidazol-5-yl)(phenyl)methanone] | – | – | chromatographic logP (HCOOH (formic acid)): 0.79
44 | Cn1cncc1C(=NOCc1cccc(NC(=O)COc2ccccc2)n1)c1cccs1 [Example 431] | – | – | log p [4]: 1.94^[b]
45 | C#CCCOC(=O)Nc1cccc(CON=C(c2cccc(F)c2)c2nccn2C)n1 [Example 336] | – | 1.98^[b] | –
46 | CCCCCOC(=O)Nc1cccc(CON=C(c2ccccc2)c2csc(C)n2)n1 [Example 187] | 4.51^[b] | – | –
47 | Cn1ncnc1C(=NOCc1cccc(NC(=O)Cc2cccc(C(F)(F)F)c2)n1)c1ccccc1 [Example 244] | 3.64^[b] | – | –
48 | CCCCCCC(=O)Nc1ccnc(CON=C(c2ccccc2)c2nccn2C)n1 [Example 14] | – | 2.39^[b] | –
49 | Cn1ncnc1C(=NOCc1cccc(NC(=O)CCc2ccccc2)n1)c1ncc(C(F)(F)F)cc1Cl [Example 471] | – | – | log p [4]: 3.73^[b]
50 | CC(C)CC(=O)Nc1ccnc(CON=C(c2ncc(C(F)(F)F)cc2Cl)c2ncnn2C)n1 [Example 478] | – | – | log p [4]: 3.06^[b]
51 | Cn1ncnc1C(=NOCc1cccc(NC(=O)CCc2ccc(Cl)s2)n1)c1ccccc1 [Example 295] | – | 3.74^[b] | –
52 | Cc1nc(C(=NOCc2cccc(NC(=O)C(C)(C)C)n2)c2ccccc2)cs1 [Example 172] | 3.56^[b] | – | –

Row | Compound | log p [1] | log p [2] | further results
53 | Cc1nc(C(=NOCc2cccc(NC(=O)CC(C)C)n2)c2ccccc2)cs1 (single isomer, unassigned) [Example 190] | 3.75^[b] | – | –
54 | Cn1c(C(=NOCc2nccc(N(C(=O)C3CC3)C(=O)C3CC3)n2)c2ccccc2)cnc1C(=O)C1CC1 [Example 260] | 3.73^[b] | – | –
55 | Cn1ncnc1C(=NOCc1ncc(C(F)(F)F)cc1Cl)c1ccccc1 [Example 47] | – | 3.44^[b] | –
56 | Cc1ncoc1C(=NOCc1cccc(N2C(=O)c3ccccc3C2=O)n1)c1ccccc1 [Example 353] | – | 3.09^[b] | –
57 | COc1ccccc1CC(=O)Nc1cccc(CON=C(c2ccccc2)c2ncnn2C)n1 [Example 234] | 3.17^[b] | – | –
58 | CCCCCOC(=O)Nc1ccnc(CON=C(c2cccs2)c2ncnn2C)n1 [Example 406] | – | 3.31^[b] | –
59 | Cn1ncnc1C(=NOCc1cccc(N2CCCCC2=O)n1)c1ccccc1 [Example 208] | 2.18^[b] | – | –
60 | CC(C(=O)Nc1cccc(CON=C(c2ccccc2)c2nccn2C)n1)c1ccccc1 (centres unmarked) [Example 333] | – | 2.21^[b] | –
61 | Cc1nnsc1C(=NOCc1cccc(NC(=O)CCC2CCCCC2)n1)c1ccccc1 [Example 223] | 5.41^[b] | – | –
62 | Cn1ccnc1C(=NOCc1cccc(N2C(=O)c3ccccc3C2=O)n1)c1cccs1 [Example 385] | – | 1.78^[b] | –
63 | Cn1cncc1C(=NOCc1nccc(NC(=O)C(C)(C)C)n1)c1ccccc1 [Example 99] | – | 1.76^[b] | –
64 | CCCCCC(=O)Nc1cccc(CON=C(c2ccccc2)c2nccn2C)n1 [Example 33] | – | 2.23^[b] | –
65 | CCCCCOC(=O)Nc1cccc(CON=C(c2ccccc2)c2nnc(C(F)(F)F)n2C)n1 [Example 197] | 4.49^[b] | – | –
66 | CCCCC(=O)Nc1ccnc(CON=C(c2ccccc2)c2cncn2C)n1 [Example 128] | – | 1.75^[b] | –
67 | Cn1ccnc1C(=NOCc1cccc(NC(=O)CSc2ccccc2)n1)c1ccccc1 [Example 283] | – | 2.63^[b] | –
68 | Cn1cnnc1C(=NOCc1cccc(NC(=O)C(C)(C)C)n1)c1ccccc1 [Example 167] | 2.44^[b] | – | –
69 | Cn1ccnc1C(=NOCc1nccc(NC(=O)C2CC2)n1)c1ccccc1 [Example 154] | 1.5^[b] | – | –
70 | COc1cccc(CC(=O)Nc2cccc(CON=C(c3cccc(F)c3)c3nccn3C)n2)c1 [Example 274] | 2.58^[b] | – | –
71 | Cc1nnsc1C(=NOCc1cccc(NC(=O)CC(C)C)n1)c1ccccc1 [Example 218] | 3.96^[b] | – | –
72 | Cn1ncnc1C(=NOCc1cccc(NC(=O)C2CCCCO2)n1)c1ccccc1 (centres unmarked) [Example 251] | 3.15^[b] | – | –
73 | Cc1nc(C(=NOCc2cccc(NC(=O)CC(C)C)n2)c2ccccc2)cs1 (single isomer, unassigned) [Example 171] | 3.46^[b] | – | –
74 | pentyl{2-[({[(1-methyl-1H-imidazol-2-yl)(phenyl)methylene]amino}oxy)-methyl]pyrimidin-4-yl}carbamate [Example 61] | – | 1.92^[b] | log P(HCOOH) (HCOOH): 2.28
75 | CCCCCC(=O)Nc1cccc(CON=C(c2ccccc2)c2nc(C)cnc2C)n1 [Example 377] | – | 4.09^[b] | –
76 | CCCCCC(=O)Nc1nc(CON=C(c2ccsc2)c2cncn2C)cs1 [Example 428] | – | – | log p [4]: 1.99^[b]
